Assay results from US10718772B2, “Method of detection of analyte active forms and determination of the ability of substances to bind into analyte active sites” (USTAV ORGANICKE CHEMIE A BIOCHEMIE AKADEMIE VED CR, V.V.I., priority 2014, dated 2020).
{C7NH2-Cpd13} = 6-amino-2-(hydroxymethyl)hexyl phosphate carrying Compound 13; {C6NH2-Cpd13} = 6-aminohexyl phosphate carrying Compound 13; {AmHex} = 6-amino-2-(hydroxymethyl)hexyl phosphate

Columns and labels:
HIV-1 protease [1] = biological target: T1, HIV-1 protease (Human immunodeficiency virus type 1 group M subtype B, UniProt P04585); experiment: HIV-1 protease enzyme kinetics with chromogenic peptide substrate; type: biochemical
T1 construct: made in house

HIV-1 protease [2] = biological target: T1, HIV-1 protease; experiment: ssHIV1 probe assay, HIV-1 protease directly adsorbed on solid carrier, qPCR; type: binding; conditions: pH 6.0
HIV-1 protease [3] = biological target: T1, HIV-1 protease; experiment: ssHIV1 probe assay, HIV-1 protease bound to immobilized polyclonal antibody, qPCR; type: binding
[4] = biological target: T2, CA-IX contained in a cell lysate of line HT-29 (Homo sapiens, UniProt Q16790); experiment: Bivalent ssCAbis probe assay, CA-IX from HT-29 cell lysate on M75 antibody, qPCR; type: binding
T2 construct: unpurified endogenous CA-IX contained in a cell lysate or in microliter volumes of serum; endogenous in cells; host or cells: HT-29
Method: (§1) Following the procedure described in the preceding examples, approximately 80 pg of CA-IX contained in a cell lysate of line HT-29 (used amount of total protein determined by Bradford assay was 1 μg) was immobilized using the M75 antibody.

CA-IX from blood serum = biological target: T3, CA-IX from blood serum (Homo sapiens, UniProt Q16790); experiment: Bivalent ssCAbis probe assay, CA-IX from blood serum on M75 antibody, qPCR; type: binding; conditions: CA-IX from 1 μl of blood serum
T3 construct: unpurified endogenous CA-IX contained in a cell lysate or in microliter volumes of serum; from tissue; host or cells: human blood serum
Method: as §1

Avi-PSMA [5] = biological target: T4, Avi-PSMA (Homo sapiens, UniProt Q04609); experiment: Enzyme kinetics of Avi-PSMA (HPLC, cleavage of pteroyl-bis-L-glutamate); type: biochemical
T4 construct: Biotinylated extracellular portion of PSMA (hereinafter called Avi-PSMA) used in the enzyme assay; made in house

Avi-PSMA [6] = biological target: T4, Avi-PSMA; experiment: PSMA catalytic activity for substrate hydrolysis by dsA3PSMA probe displacement, qPCR; type: biochemical; conditions: for substrate cleaved during incubation: 40 minutes
Method: Following the procedure described in section 1i, 20 pg of Avi-PSMA was immobilized to the bottom of the wells via immobilized neutravidin and subsequently incubated with the dsA3PSMA detection probe at a concentration of 35 pmol·l^−1 and simultaneously with various concentrations of the folyl-γ-L-glutamate substrate in the range of 10 nmol·l^−1 to 100 μmol·l^−1 for 40 minutes, and after washing, the amount of bound probe was determined with qPCR. […] At a concentration of 336 nmol·l^−1, 43% was cleaved, corresponding to kcat of 2.3 s^−1 and at a concentration of 1049 nmol·l^−1, 16% was cleaved, corresponding to kcat of 2.6 s^−1. Obtained kcat values are in conformity with the kcat value of 5 s^−1 obtained from enzyme kinetics as described in Section 1c.

CA-IX = CA-IX (Homo sapiens, UniProt Q16790, N346D); experiment: Reference enzyme kinetics of CA-IX (construct without PG domain)
[7] = first independent experiment, read-out: Ki (1)
[8] = second independent experiment, read-out: Ki (2)
[9] = initial concentration 107 nmol·l^−1
[10] = initial concentration 336 nmol·l^−1
[11] = initial concentration 1049 nmol·l^−1

T4 sequence (Q04609 44-750 limits assumed): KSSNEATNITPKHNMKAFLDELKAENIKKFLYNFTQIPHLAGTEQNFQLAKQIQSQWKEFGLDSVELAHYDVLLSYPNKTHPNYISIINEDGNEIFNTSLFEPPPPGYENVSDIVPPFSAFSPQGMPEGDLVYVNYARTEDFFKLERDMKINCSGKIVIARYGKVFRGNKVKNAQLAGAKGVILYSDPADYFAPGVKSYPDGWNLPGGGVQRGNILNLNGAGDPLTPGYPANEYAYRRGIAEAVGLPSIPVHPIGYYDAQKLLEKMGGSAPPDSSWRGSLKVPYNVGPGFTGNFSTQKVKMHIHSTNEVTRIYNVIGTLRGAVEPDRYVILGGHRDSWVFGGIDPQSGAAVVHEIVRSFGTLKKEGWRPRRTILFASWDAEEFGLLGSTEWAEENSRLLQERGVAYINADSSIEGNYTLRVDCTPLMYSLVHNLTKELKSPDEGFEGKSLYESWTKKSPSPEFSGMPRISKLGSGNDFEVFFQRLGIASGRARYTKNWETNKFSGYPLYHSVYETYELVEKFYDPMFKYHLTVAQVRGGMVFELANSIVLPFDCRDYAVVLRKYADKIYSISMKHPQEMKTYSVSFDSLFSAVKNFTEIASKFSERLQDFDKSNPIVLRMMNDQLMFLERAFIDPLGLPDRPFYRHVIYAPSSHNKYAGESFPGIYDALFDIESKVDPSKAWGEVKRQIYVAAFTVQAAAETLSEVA

`CC(C)[C@H](NC(=O)CCOCCOCCOCCOCCOCCC(=O)NCCO)C(=O)N[C@@H](Cc1ccccc1)C[C@H](O)[C@H](Cc1ccccc1)NC(=O)OCc1cncs1` [Compound 8, thiazol-5-ylmethyl ((24S,27S,29S,30S)-27-benzyl-1,29-dihydroxy-24-isopropyl-4,22,25-trioxo-31-phenyl-7,10,13,16,19-pentaoxa-3,23,26-triazahentriacontan-30-yl)carbamate] gave a Ki (HIV-1 protease [1]) of 2.3 nM.

Compound `COC(=O)N[C@H](C(=O)N[C@@H](Cc1ccccc1)[C@@H](O)CN(Cc1ccc(-c2ccccn2)cc1)NC(=O)[C@@H](NC(=O)OC)C(C)(C)C)C(C)(C)C` [atazanavir] has a Ki (HIV-1 protease [2]; [7]) of 0.11 nM, a Ki (HIV-1 protease [2]; [8]) of 0.18 nM and a Ki (HIV-1 protease [3]) of 1.4 nM. For the same compound, the Ki (HIV-1 protease [1]) was 0.024 nM.

With “ssCAbis: bivalent probe: two molecules of Compound 13 on oligonucleotide SEQ ID NO: 7 (DNA AAACCTGCCAGTTGAGCATTTTTATCTGCCACCTTCTCCACCAGACAAAAGCTGGAAA; 5' {C6NH2-Cpd13}, 3' {C7NH2-Cpd13}, sugars by position and backbone not given here)” the Kd ([4]; HT-29 lysate, HEPESTC′ buffer) was 2.1 nM and the Kd (CA-IX from blood serum) was 2.2 nM.

For “iqPCR_amino: single-stranded DNA (SEQ ID NO: 1) with 3′-terminal 6-amino-2-(hydroxymethyl)hexyl phosphate modification, no ligand portion (DNA CCTGCCAGTTGAGCATTTTTATCTGCCACCTTCTCCACCAGACAAAAGCTGGAAA; DNA, 3' {AmHex}, backbone not given here)”, the “binding to immobilized HIV-1 protease” value (HIV-1 protease [3]; 100 ng of HIV-1 protease) was “no binding was observed” and the “inhibition at the highest concentration used” value (Avi-PSMA [5]; 0.5 μmol·l^−1) was “no inhibition observed”.

For `Nc1nc2ncc(CNc3ccc(C(=O)N[C@@H](CCC(=O)N[C@@H](CCC(=O)O)C(=O)O)C(=O)O)cc3)nc2c(=O)[nH]1` [folyl-γ-L-glutamate], the “kcat from enzyme kinetics” value (Avi-PSMA [5]; as described in Section 1c) was 5 s⁻¹, the kcat (Avi-PSMA [6]; [9]) was 1.2 s⁻¹ and the “substrate cleaved during incubation” value (Avi-PSMA [6]; [9]) was 80%. The kcat (Avi-PSMA [6]; [10]) was 2.3 s⁻¹, the “substrate cleaved during incubation” value (Avi-PSMA [6]; [10]) was 43% and the kcat (Avi-PSMA [6]; [11]) was 2.6 s⁻¹. The “substrate cleaved during incubation” value (Avi-PSMA [6]; [11]) was 16%.

With `O=C(O)CCC(NC(=O)NC(CCCCNC(=O)CCOCCC(=O)NCCO)C(=O)O)C(=O)O` (centres unmarked) [Compound 4, 1-hydroxy-4,10,18-trioxo-7-oxa-3,11,17,19-tetraazadocosane-16,20,22-tricarboxylic acid] the Ki (Avi-PSMA [5]; Avi-PSMA, IC50 converted by Cheng-Prusoff, pH 7.4, 37° C.) was 3.3 nM.

For `NS(=O)(=O)c1ccc(NC(=O)Nc2ccc(OCCCCNC(=O)CCOCCOCCOCCOCCOCCC(=O)ON3C(=O)CCC3=O)cc2)cc1` [Compound 13, 2,5-dioxopyrrolidin-1-yl 19-oxo-24-(4-(3-(4-sulfamoylphenyl)ureido)phenoxy)-4,7,10,13,16-pentaoxa-20-azatetracosan-1-oate], the Ki (CA-IX) was ~400 nM.

Work on `NCCCC[C@H](NC(=O)N[C@@H](CCC(=O)O)C(=O)O)C(=O)O` [PSMA parent compound, S,S-2-[3-[5-amino-1-carboxypentyl]-ureido]-pentanedioic acid] yielded a Ki (Avi-PSMA [5]; Avi-PSMA enzyme assay) of 0.2 nM.

Compound `CCC[C@@]1(CCc2ccccc2)CC(O)=C([C@H](CC)c2cccc(NS(=O)(=O)c3ccc(C(F)(F)F)cn3)c2)C(=O)O1` [tipranavir] has a Ki (HIV-1 protease [2]; [7]) of 1.3 nM, a Ki (HIV-1 protease [2]; [8]) of 2.9 nM and a Ki (HIV-1 protease [3]) of 14 nM. It also gave a Ki (HIV-1 protease [1]) of 0.14 nM.

For `NCCOCCOCCOCCOCCOCCC(=O)NCCCCOc1ccc(NC(=O)Nc2ccc(S(N)(=O)=O)cc2)cc1` [Compound 14, 18-oxo-23-(4-(3-(4-sulfamoylphenyl)ureido)phenoxy)-3,6,9,12,15-pentaoxa-19-azatri-cosan-1-aminium 2,2,2-trifluoroacetate], the Ki ([4]; ssCAbis probe, determined in the same way as Table 15, read-out: inhibitory constant) was 300 nM.

With `Cc1nc(COc2ccc(C[C@H](NC(=O)O[C@H]3CO[C@H]4OCC[C@H]43)[C@H](O)CN(CC(C)C)S(=O)(=O)c3ccc4c(c3)OCO4)cc2)cs1` [brecanavir] the Ki (HIV-1 protease [2]; [7]) was 0.04 nM, the Ki (HIV-1 protease [2]; [8]) was 0.05 nM and the Ki (HIV-1 protease [3]) was 0.41 nM. It also gave a Ki (HIV-1 protease [1]) of 0.001 nM.

Compound `Cc1cccc(C)c1OCC(=O)N[C@@H](Cc1ccccc1)[C@@H](O)C[C@H](Cc1ccccc1)NC(=O)[C@H](C(C)C)N1CCCNC1=O` [lopinavir] has a Ki (HIV-1 protease [2]; [7]) of 0.18 nM, a Ki (HIV-1 protease [2]; [8]) of 0.41 nM and a Ki (HIV-1 protease [3]) of 1.3 nM. It also gave a Ki (HIV-1 protease [1]) of 0.018 nM.
